Columns and labels:
Format in all cases: cell-based
[1] = target: T1, zPres (Danio rerio, UniProt Q7T2C4, R505K, form not given); assay: whole-cell patch clamp, oxalate-chloride counter-transport current, CHO cells; conditions: 106 mM intracellular oxalate; extracellular chloride; current at 0 mV; GFP fusion
T1 construct: gene slc26a5; full length; C-terminal GFP fusion in CHO cells (pEGFP-N1); in Xenopus oocytes (pGEMHE) with functionally silent R505K; homodimer
T1 sequence (Q7T2C4 1-739 R505K): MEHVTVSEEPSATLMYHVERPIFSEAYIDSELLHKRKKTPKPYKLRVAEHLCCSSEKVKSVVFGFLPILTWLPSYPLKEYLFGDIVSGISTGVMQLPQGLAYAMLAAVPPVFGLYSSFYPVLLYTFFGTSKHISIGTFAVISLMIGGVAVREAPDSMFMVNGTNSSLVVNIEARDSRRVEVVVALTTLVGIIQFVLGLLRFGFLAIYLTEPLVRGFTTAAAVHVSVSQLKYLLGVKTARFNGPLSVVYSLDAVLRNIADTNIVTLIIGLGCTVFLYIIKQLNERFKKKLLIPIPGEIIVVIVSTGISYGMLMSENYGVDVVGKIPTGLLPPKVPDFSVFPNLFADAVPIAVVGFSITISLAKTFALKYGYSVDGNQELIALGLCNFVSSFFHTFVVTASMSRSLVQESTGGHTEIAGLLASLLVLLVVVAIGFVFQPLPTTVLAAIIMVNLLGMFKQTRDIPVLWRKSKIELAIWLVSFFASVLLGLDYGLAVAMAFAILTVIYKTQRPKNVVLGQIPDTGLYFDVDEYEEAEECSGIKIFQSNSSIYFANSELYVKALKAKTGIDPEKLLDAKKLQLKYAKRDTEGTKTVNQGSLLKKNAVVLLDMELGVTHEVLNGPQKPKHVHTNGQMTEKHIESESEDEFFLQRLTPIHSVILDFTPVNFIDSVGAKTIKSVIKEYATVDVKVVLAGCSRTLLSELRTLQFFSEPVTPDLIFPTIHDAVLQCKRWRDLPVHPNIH

[2] = target: T2, zPres (Danio rerio, UniProt Q7T2C4, R505K); assay: whole-cell patch clamp, non-linear capacitance, CHO cells; conditions: 10 mM extracellular salicylate; 160 mM intracellular Cl-; pH 7.4; zPres-GFP; inhibition
T2 construct: gene slc26a5; full length; C-terminal GFP fusion in CHO cells (pEGFP-N1); in Xenopus oocytes (pGEMHE) with functionally silent R505K; homodimer
T2 sequence (Q7T2C4 1-739 R505K): T1 sequence (Q7T2C4 1-739 R505K)

[3] = target: T3, rPres (Rattus norvegicus, UniProt Q9EPH0, R150C); assay: voltage-clamp fluorometry, Xenopus oocytes; conditions: 10 mM extracellular salicylate; labelled at C150 with MTS-TAMRA; signal suppressed, V1/2 depolarized
T3 construct: gene Slc26a5; full length; C-terminal 6xHis tag in Xenopus oocytes (pGEMHE); homodimer
T3 sequence (Q9EPH0 1-744 R150C): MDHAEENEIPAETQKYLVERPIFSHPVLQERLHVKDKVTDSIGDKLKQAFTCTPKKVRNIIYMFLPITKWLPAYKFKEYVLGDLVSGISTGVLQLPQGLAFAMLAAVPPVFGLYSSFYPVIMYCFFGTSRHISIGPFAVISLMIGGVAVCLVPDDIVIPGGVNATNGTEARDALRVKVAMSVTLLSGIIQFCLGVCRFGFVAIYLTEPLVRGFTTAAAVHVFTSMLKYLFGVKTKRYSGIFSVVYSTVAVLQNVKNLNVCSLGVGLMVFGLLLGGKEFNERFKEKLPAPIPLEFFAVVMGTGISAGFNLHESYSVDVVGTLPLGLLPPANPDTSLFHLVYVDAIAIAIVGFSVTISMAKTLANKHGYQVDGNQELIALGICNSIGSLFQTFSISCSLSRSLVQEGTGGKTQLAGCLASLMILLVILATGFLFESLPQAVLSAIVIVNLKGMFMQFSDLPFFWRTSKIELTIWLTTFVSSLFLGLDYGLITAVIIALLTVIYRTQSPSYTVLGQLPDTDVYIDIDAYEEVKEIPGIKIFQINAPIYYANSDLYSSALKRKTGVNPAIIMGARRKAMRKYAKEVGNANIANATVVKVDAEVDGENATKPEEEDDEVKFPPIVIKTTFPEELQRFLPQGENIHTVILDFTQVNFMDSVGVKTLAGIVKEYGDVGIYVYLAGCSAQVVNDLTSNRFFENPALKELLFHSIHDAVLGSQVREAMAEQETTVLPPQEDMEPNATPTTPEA

SMILES	whole-cell patch clamp, oxalate-chloride counter-transport current, CHO cells [1]	whole-cell patch clamp, non-linear capacitance, CHO cells [2]	voltage-clamp fluorometry, Xenopus oocytes [3]
O=C(O)C(=O)O [oxalate]	monitored as the electrogenic oxalate-chloride counter-transport current by whole-cell patch-clamping		
O=C(O)c1ccccc1O [salicylate]		NLC recorded from cells expressing zPres was readily inhibited by salicylate	salicylate, suppressed the voltage-dependent fluorescence signals of rPres-R150C-TAMRA
